Holding throughout (format): cell-based
One data set deals with HCV genotype 1b replicon. Put plainly: Anti-HCV-1b replicon activity (luciferase, Bright-Glo). To be noted: Hepatitis C virus, Huh-7, 72 h, read-out: EC50 against HCV-1b replicon. On the procedure:
(§1) Each of the compounds prepared in the above examples of the present invention was dissolved at 10 mM in DMSO, then diluted to 50 μM with DMEM complete medium, then diluted to 20 nM with complete medium containing 0.5% DMSO, and then serially diluted by 3-fold, to obtain a total of 10 concentrations.
(§2) HCV 1b replicon cells, i.e., Huh7 cell line stably transfected with HCV genotype 1b replicon, were provided by WuXi AppTec (Shanghai) Co., Ltd. Specific preparation methods of Huh7 lb replicon cell system can be found in Lohmann V, Korner F, Koch J, Herian U, Theilmann L, Bartenschlager R., Replication of subgenomic hepatitis C virus RNAs in a hepatoma cell line, Science 285 (5424): 110-113 (1999).
(§3) 1) Preparation of compounds: adding 75 μl of the compounds of the present invention at the above concentration gradient to a 96-well plate using POD810 system, with each concentration for each compound in duplicate;
(§4) 2) Preparation of cells: collecting HCV 1b replicon cells in logarithmic phase and resuspending them in DMEM complete medium, and then adding 75 μl of the cell suspension to each well of the above 96-well plate (8×10^3 cells/well); at the same time, establishing zero percent effect (ZPE) control group and hundred percent effect (HPE) control group, with ZPE group using complete culture medium containing 0.5% DMSO instead of the compound, and the HPE group merely containing DMEM medium in the wells.
(§5) 3) Cell culture: placing the 96-well plate in a 37° C., 5% CO2 incubator and culturing for 3 days.
(§6) 5) Anti-HCV replicon activity assay: adding luciferase luminescence substrate Bright-Glo to each well, and detecting luminescence signal values using the multimode microplate reader within 5 min, with the raw data (RLU) being used for calculation of the anti-HCV activities of the compounds;
(§7) 6) Data processing: processing the raw data using the following formula into the inhibition percentage of the compound against HCV replicon (Inhibition %) and the percentage of cell viability (Viability %): Inhibition %=(RLUZPE−RLUCPD)/(RLUZPE−RLUHPE)×100 Viability %=(RFUCPD−RFUHPE)/(RFUZPE−RFUHPE)×100 wherein CPD: the fluorescence signal value of the well of the compound; ZPE (zero percent effect): the fluorescence signal value of the zero percent effect control; HPE (hundred percent effect): the fluorescence signal value of the hundred percent effect control.
(§8) The Inhibition % and Viability % were introduced into GraphPad Prism software for data processing, respectively, to obtain the half effective concentration EC50 of the compound against HCV replicon and the half cytotoxic concentration CC50.
On the technique in general: In antiviral work, replicon cells carry a viral genome segment that copies itself.

For a further data set, the system named is HCV genotype 1a replicon. Description: Anti-HCV-1a replicon activity (luciferase, Bright-Glo). The settings on record: Hepatitis C virus, Huh-7, 72 h, read-out: EC50 against HCV-1a replicon. The method, then:
as §3, §4, §5, §6, §7, §8
(§9) HCV 1a replicon cells, i.e., Huh7 cell line stably transfected with HCV genotype 1a replicon (provided by WuXi AppTec (Shanghai) Co., Ltd.) were used as the experimental cells. As described above for the HCV 1b replicon cell system, the HCV genotype 1a replicon cell systems were similarly prepared.
(§10) The anti-HCV-1a activities of the compounds of the present invention were tested according to the method for testing the anti-HCV-1b replicon activity in Experimental Example 1.

A short description of data set [1]: Cell viability test (CellTiter-Fluor) in HCV 1b replicon cells. To be noted: human, Huh7 cells stably transfected with HCV genotype 1b replicon; HCV 1b replicon Huh7 cells, 3 days culture; read-out: CC50 (half cytotoxic concentration). The method, then: as §1, §2, §3, §4, §5
(§11) 4) Cell viability test: after adding detection reagent for fluorescence assay of cell growth to each well and culturing the cells in a 37° C., 5% CO2 incubator for one hour, detecting the fluorescence signal values using the multimode microplate reader, with the raw data (RFU) being used for calculation of the cytotoxicity of the compounds;
as §7, §8

A short description of data set [2]: Cell viability test (CellTiter-Fluor) in HCV 1a replicon cells. To be noted: human, Huh7 cells stably transfected with HCV genotype 1a replicon; HCV 1a replicon Huh7 cells, 3 days culture; read-out: CC50 (half cytotoxic concentration). On the procedure:
as §11, §7, §8, §9, §10

A word on the EC50: it is the concentration giving half of the maximal effect.

The structures appear in SMILES notation.

For the molecule `COC(=O)N[C@H](C(=O)N1CCC[C@H]1c1ncc(-c2ccc3c(c2)C(F)(F)C(F)(F)c2cc(-c4cnc([C@@H]5CC6(CN5C(=O)[C@@H](NC(=O)OC)C(C)C)OCCO6)[nH]4)ccc2-3)[nH]1)C(C)C` [Example 14, Methyl N-((2S)-1-((S)-2-(5-(7-((S)-2-(7-((S)-2-((methoxycarbonyl)amino)-3-methylbutanoyl)-1,4-dioxa-7-azaspiro[4.4]nonan-8-yl)-1H-imidazol-5-yl)-9,9,10,10-tetrafluoro-9,10-dihydrophenanthren-2-yl)-1H-imidazol-2-yl)pyrrolidin-1-yl)-3-methyl-1-oxobutan-2-yl)carbamate], the values for the EC50 with HCV genotype 1b replicon and in the data set with HCV genotype 1a replicon were 0.006 nM and 0.15 nM, respectively. Also, the CC50 at 3 days in data set [1] and in data set [2] was more than 10 nM each time.
Regarding `COC(=O)N[C@H](C(=O)N1CC2(C[C@H]1c1ncc(-c3ccc4c(c3)C(F)(F)C(F)(F)c3cc(-c5cnc([C@@H]6CC7(CN6C(=O)[C@@H](NC(=O)OC)C(C)C)OCCO7)[nH]5)ccc3-4)[nH]1)OCCO2)C(C)C` [Example 17, Dimethyl ((2S,2′S)-((2S,2′S)-2,2′-(5,5′-(9,9,10,10-tetrafluoro-9,10-dihydrophenanthren-2,7-diyl)bis(1H-imidazol-5,2-diyl))bis(1,4-dioxa-7-azaspiro[4.4]nonan-7,8-diyl))bis(3-methyl-1-oxobutan-2,1-diyl))dicarbamate], the EC50 is 0.007 nM in the data set with HCV genotype 1b replicon and 0.175 nM in the data set on HCV genotype 1a replicon. Also, the CC50 at 3 days in data set [1] and in data set [2] was more than 10 nM each time.
